Laboratory results as given in ChEMBL document CHEMBL1134990, “Trifluoromethyl ketones as inhibitors of histone deacetylase” (Bioorg Med Chem Lett, 2002).

Experiments:
[1] = biological target: T1, Histone deacetylase (HDAC1 and HDAC2) (Homo sapiens, UniProt Q13547+Q92769); test: Inhibition of human histone deacetylase (mixture of HDAC1 and HDAC2) prepared from K562 erythroleukemia cells; format: cell-based; settings: concentration not given here
HT-1080 = test: Anti-proliferative activity against human tumor cell line HT1080; format: functional, cell-based
[2] = biological target: T1, Histone deacetylase (HDAC1 and HDAC2); test: Inhibition of human histone deacetylase (mixture of HDAC1 and HDAC2) prepared from K562 erythroleukemia cells.; format: cell-based
MDA-MB-435 = test: Anti-proliferative activity against human tumor cell line MDA-435; format: functional, cell-based

T1 sequence (Q13547 whole entry, looked up): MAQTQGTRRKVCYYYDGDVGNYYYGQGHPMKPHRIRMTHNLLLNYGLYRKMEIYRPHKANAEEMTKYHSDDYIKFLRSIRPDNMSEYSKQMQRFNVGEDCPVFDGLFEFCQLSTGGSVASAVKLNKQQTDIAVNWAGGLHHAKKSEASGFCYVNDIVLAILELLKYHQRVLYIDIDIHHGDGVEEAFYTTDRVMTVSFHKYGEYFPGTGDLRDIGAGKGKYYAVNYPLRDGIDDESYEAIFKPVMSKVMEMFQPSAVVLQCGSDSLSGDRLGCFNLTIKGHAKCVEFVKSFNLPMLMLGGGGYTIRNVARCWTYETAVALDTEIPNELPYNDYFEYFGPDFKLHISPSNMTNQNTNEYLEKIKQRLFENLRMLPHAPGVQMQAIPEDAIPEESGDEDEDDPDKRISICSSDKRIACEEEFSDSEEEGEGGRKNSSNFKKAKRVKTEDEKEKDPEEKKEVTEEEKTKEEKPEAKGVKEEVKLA
T1 sequence (Q92769 whole entry, looked up): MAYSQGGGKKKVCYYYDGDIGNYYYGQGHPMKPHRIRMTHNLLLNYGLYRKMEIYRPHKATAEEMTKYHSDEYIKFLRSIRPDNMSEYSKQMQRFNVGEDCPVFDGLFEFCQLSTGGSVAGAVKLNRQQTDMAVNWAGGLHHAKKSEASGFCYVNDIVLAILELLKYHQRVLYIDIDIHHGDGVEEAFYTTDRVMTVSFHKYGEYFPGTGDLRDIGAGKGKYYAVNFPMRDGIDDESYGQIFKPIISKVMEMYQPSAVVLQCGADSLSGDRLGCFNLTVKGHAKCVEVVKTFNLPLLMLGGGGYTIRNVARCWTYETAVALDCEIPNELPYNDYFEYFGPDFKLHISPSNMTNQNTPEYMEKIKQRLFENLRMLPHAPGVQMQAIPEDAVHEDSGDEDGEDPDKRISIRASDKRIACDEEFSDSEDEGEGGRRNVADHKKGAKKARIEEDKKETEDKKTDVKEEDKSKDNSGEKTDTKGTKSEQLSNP

`O=C(CCCCCCCOc1ccc(-c2ccccc2)cc1)C(F)(F)F` showed an inhibition [1] of 72%.

In the case of `O=C(CCCCCCC(=O)C(F)(F)F)Nc1cccc(-c2ccccc2)c1`, the IC50 (HT-1080) is reported as 16 µM, the IC50 [2] is reported as 0.38 µM and the IC50 (MDA-MB-435) is reported as 23 µM.

With `O=C(CCCCCCC(=O)C(F)(F)F)Nc1ccccc1` the IC50 (HT-1080) was 2.2 µM and the IC50 (MDA-MB-435) was 15 µM.
